In brackets after ≈: the same amount, converted by molar mass. Like-named read-outs stand apart in the source and are kept apart here.
How the values were obtained:
Format in all cases: physicochemical
[1] = Crystal transformation experiment (suspension stirring, XRPD)
Procedure: Form A and Form B were mixed in equal amounts, and mixed in EA/Hep(1:1) to give a suspension, and XRPD test is performed after stirring at normal temperature (25° C.) for three days.

[2] = Solubility experiment of each crystalline form in water
[3] = Dynamic Vapor Sorption (DVS) / hygroscopicity test; details: for Humidity change (DVS): within the conventional storage humidity range
Procedure: Dynamic Vapor Sorption (DVS) test/Hygroscopicity test is a rapid measurement of the increase and loss of sample moisture caused by a flowing carrier gas with a set relative humidity (RH). The hygroscopicity of the sample is then determined by measuring the increase/decrease in the mass of the material to detect the adsorption/desorption of water vapor on a high-sensitivity, high-stability digital microbalance in a self-suspended state.
In the present invention, the test parameters of DVS are as follows: instrument model: SMS DVS Intrinsic; measurement temperature 25° C., 0-95% RH.

SMILES | Stability order of the three crystalline forms [1] | Solubility ([2]; Pure water) [µg/mL] | Solubility ([2]; pH 2.01) [µg/mL] | Solubility ([2]; pH 4.59) [µg/mL] | Solubility ([2]; pH 6.74) [µg/mL] | Humidity change (DVS) [3] [%] | Crystal form transformation ([1]; metastable crystalline) | Solubility compared with other form ([2]; in water, Form C becomes Form B after being transformed) | Solubility ([2]; water, pH 2.01, aqueous buffer, thermodynamic from solid, pH 2.01, read-out: Solubility) [µg/mL] | Solubility ([2]; water, pH 4.59, aqueous buffer, thermodynamic from solid, pH 4.59, read-out: Solubility) [µg/mL] | Solubility ([2]; water, pH 6.74, aqueous buffer, thermodynamic from solid, pH 6.74, read-out: Solubility) [µg/mL] | Change in hygroscopicity (weight change, DVS) ([3]; 0-95% relative humidity, 25° C.)
COc1cc2c(cc1OC)C(=O)C(CC1(F)CCN(Cc3ccccc3F)CC1)C2 (single isomer, unassigned) [Form B] | Form A>Form B>Form C | 8.9 (≈ 0.0214 mM) | 20500 (≈ 49.3 mM) | 2790 (≈ 6.72 mM) | 180 (≈ 0.433 mM) | 1 |  |  |  |  |  | 
COc1cc2c(cc1OC)C(=O)C(CC1(F)CCN(Cc3ccccc3F)CC1)C2 (single isomer, unassigned) [Form C] | Form A>Form B>Form C |  |  |  |  | 1.2 | transfers to Form B | the same as Form B |  |  |  | 
COc1cc2c(cc1OC)C(=O)C(CC1(F)CCN(Cc3ccccc3F)CC1)C2 (single isomer, unassigned) [Form A] | Form A>Form B>Form C | 140 (≈ 0.337 mM) |  |  |  |  |  |  | 12400 (≈ 29.7 mM) | 1860 (≈ 4.48 mM) | 140 (≈ 0.337 mM) | about 0.6%
